The values that follow come from patent publication US5130139A, “Reduction or prevention of skin irritation by drugs” (Alza Corporation, priority 1990, dated 1992).

Read-outs that look alike come from different tables or passages of the source.

Data set [1] has as its system human skin fibroblasts. The data set can be described thus: Uptake/accumulation of radiolabelled drug in fibroblasts, 16 h incubation. The data set is classed as cell-based. As for the experimental part:
For the uptake studies, cell cultures of fibroblasts were exposed to medium containing the radioactive-labelled drug and incubated for 16 hours. The uptake process was then stopped by removing the medium and rapidly washing the cells with cold PBS three times. The cells were then extracted with methanol which was transferred to counting vials, and the amount of radioactivity was measured by liquid scintillation. To compensate for non-specific binding to the plastic of the wells, wells containing no cells were incubated with the radiolabelled drugs under the same conditions. The radioactive content of those wells was taken as the control value and substracted form the radioactive content of the wells containing cells.
Fibroblast cell cultures were incubated for 16 hours in propranolol (2×10^-7 M) with various concentrations of monensin. The accumulation of propranolol in the cells was then determined, following the procedures of Example 1. […] At 10^-5 M monensin, propranolol uptake was negligible even though the cells were fully viable.

In data set [2] the test system is skin irritation (erythema), volar forearm. The data set can be described thus: In vivo skin irritation (erythema, Minolta Chromameter) after 16 h application of gel to volar forearm. Further details: species or system human. The following applies: monensin 5.0 wt % with chloroquine 1.0 wt % gel.
Method: The resulting gels were buffered to pH 8.5 with EPPS buffer and contained 30 wt % ethanol to maintain the solubility of the drug.
All of the gels were placed in such manner. After 16 hours, each cup was removed and the site was washed. At various times thereafter the sites were observed and the intensity of the irritant reaction (the erythema) was scored by measuring skin color with an electronic instrument, the Minolta Chromameter.
Data set [3] has as its system human skin fibroblasts. Description: in vitro. An excerpt:
(§1) The following examples are offered to illustrate the practice of the present invention. It is important to note that this invention is not limited to any particular transdermal device or other form of transdermal delivery, as are commonly known in the art. Nor is this invention limited to a particular formulation. Therefore, the embodiments described herein are merely illustrative and are not intended to limit the scope of the invention in any manner.
(§2) Four beta-adrenergic blocking drugs (propranolol, labetalol, pindolol and timolol) were tested for their uptake and their toxicity in human skin fibroblasts.
(§3) To estimate the toxicity of the tested compounds, the general procedure of the MTT assay (Swisher et al., Models Dermatol., Maibach and Lowe (eds.), Basel, Karger, vol. 4, pp 131-137, 1989) was used. Cell cultures of fibroblasts were incubated for 16 hours in medium containing a range of concentrations of the drug being tested. At the end of the incubation time, the medium was removed and replaced with medium containing MTT at 0.5 mg/ml. After 3 hours, this medium was discarded and the blue formazan, a metabolite of MTT produced only by viable cells, was dissolved in acidified isopropanol. Absorbance of this solution was measured at 540 nm against a reference wavelength of 660 nm. Results were then expressed as percent of control cultures incubated in the same conditions without drug or agent.
(§4) The treated cells were also tested for the cytotoxic effect of propranolol in the presence of various concentrations of monensin, following the procedures of Example 1.
(§5) They were tested with 10^-6 M monensin.
(§6) In the Table, the "factor of protection" is the ratio of the ID50 of the toxic drug incubated with monensin to the ID50 of the toxic drug alone.
(§7) The action of various ionophores and amphiphilic amines on the cytotoxicity of propranolol and chloroquine was determined, following the procedures of Example 1. The "factor of protection" corresponds to the ratio of the ID50 of the toxic drug incubated with uptake-inhibiting agent at the indicated concentration, to the ID50 of the toxic drug alone. The "mode of action" indicates either the ions which are preferentially carried by the tested ionophores or that the agent acts by competition.

For data set [4], the system named is lysosomes. Conditions: literature; cited from earlier work.
The nature of data set [5]: in vitro. The following applies: human, skin fibroblasts.
Excerpt: as §1, §2, §3, §4, §5, §6, §7

Data set [6] in a line: In vitro permeation through human epidermis from gels. The data set is classed as in vitro ADME. Conditions: gels of Example 5; 37° C.; sampled at 3, 8 and 24 hours. Here is the method:
Circular pieces of human epidermis were mounted in horizontal permeation cells (1.13 cm^2 of effective permeating surface) with the stratum corneum facing the donor compartment of the cell. A known volume (20-23 ml) of 0.2M TRIS buffer pH 7.5 (the receptor solution) was placed in the receptor compartment. The cell was then placed in a water bath-shaker at 37° C. and allowed to equilibrate. A 0.2 ml aliquot of the tested formulation was transferred to the donor compartment. Occlusion was achieved by the use of a teflon film in contact with the formulation. At 3, 8 and 24 hours, the receptor solutions were removed and replaced with equal volumes of fresh receptor solution previously equilibrated at 37° C. Chloroquine was quantified in the samples by fluorometrical measurements. These were carried out at room temperature in a Perkin-ElmerLS-5B luminescence spectrometer. The samples were adjusted to pH 8.65 at a final TRIS concentration of 0.1M and 30% (vol/vol) ethanol. The excitation wavelength was 333 nm and the emission wavelength was 382 nm. Chloroquine concentrations were extrapolated by comparison with a standard curve obtained under the same conditions. […] For each formulation condition, eight permeation cells were used. Results are presented as the means with their associated standard error.

Where [7] appears, read: against chloroquine cytotoxicity, agent 10^-5 M.
[8] abbreviates: against propranolol cytotoxicity, agent 10^-5 M.
Setting [9] is: against chloroquine cytotoxicity, agent 10^-2 M.

As for `CC[C@@]1([C@@H]2O[C@@H]([C@H]3O[C@@](O)(CO)[C@H](C)C[C@@H]3C)C[C@@H]2C)CC[C@H]([C@]2(C)CC[C@]3(C[C@H](O)[C@@H](C)[C@@H]([C@@H](C)[C@@H](OC)[C@H](C)C(=O)O)O3)O2)O1` [Monensin, monensin], in data set [1] (propranolol 2×10^-7 M, monensin 10^-5 M), the “Propranolol uptake at 10^-5 M monensin” value is given as “negligible”. For the same compound, the “Effect of monensin on propranolol uptake in the cells” value in data set [1] (propranolol 2×10^-7 M, monensin 10^-8 M to 10^-5 M) was “decreased propranolol uptake in the cells in a dose-dependent manner”. Also, the “Viability of cells at 10^-5 M monensin” value in data set [1] (with propranolol 2×10^-7 M, monensin 10^-5 M) is listed as “fully viable”. For the same compound, the “Effect of monensin on irritant reaction (erythema)” value in data set [2] is on record as “reduced the irritant reaction”. Moreover, the “Effect of monensin on toxicity of five weak base drugs” value in data set [3] (10^-6 M monensin, clemastine, imipramine, chlorpromazine, quinacrine, chloroquine) is on record as “reduced the toxicity of all the drugs”. Further, the “Factor of Protection, Chloroquine (ID50 with agent / ID50 alone)” value in data set [3] (setting [7]) came to 19. For the same compound, the “Factor of Protection, Propranolol (ID50 with agent / ID50 alone)” value in data set [3] (against propranolol cytotoxicity, agent 10^-5 M, pre-treatment of 2 hours with agent) came out at 1.41. Besides, the “Effect of monensin on propranolol toxicity” value in data set [3] (monensin 10^-8 M to 10^-5 M) is given as “dose-dependent decrease of propranolol toxicity”.
`CC(C)[C@@H]1NC(=O)[C@H](C)OC(=O)[C@@H](C(C)C)NC(=O)[C@@H](C(C)C)OC(=O)[C@H](C(C)C)NC(=O)[C@H](C)OC(=O)[C@@H](C(C)C)NC(=O)[C@@H](C(C)C)OC(=O)[C@H](C(C)C)NC(=O)[C@H](C)OC(=O)[C@@H](C(C)C)NC(=O)[C@@H](C(C)C)OC1=O` [Valinomycin]: the “Factor of Protection, Chloroquine (ID50 with agent / ID50 alone)” value in data set [3] (setting [7]) turned out to be 13. Moreover, in data set [3] (setting [8]), the “Factor of Protection, Propranolol (ID50 with agent / ID50 alone)” value was 1.
On to `CNc1ccc2oc(C[C@H]3O[C@@]4(CC[C@H]3C)O[C@H]([C@H](C)C(=O)c3ccc[nH]3)[C@H](C)C[C@H]4C)nc2c1C(=O)O` [A23187], for which the “Factor of Protection, Chloroquine (ID50 with agent / ID50 alone)” value in data set [3] (against chloroquine cytotoxicity, agent 10^-6 M) was found to be 11. In addition, the “Factor of Protection, Propranolol (ID50 with agent / ID50 alone)” value in data set [3] (against propranolol cytotoxicity, agent 10^-6 M) is reported as 1.
Turning to `NCCO` [Ethanolamine], the “Factor of Protection, Chloroquine (ID50 with agent / ID50 alone)” value in data set [3] is on record as 6.4.
`CC(C)NCC(O)COc1cccc2ccccc12` (stereo not shown) [Propranolol, propranolol]: the Accumulation in lysosomes entry in data set [4] is on record as “have been shown to accumulate in lysosomes”. For the same compound, the “Factor of Protection, Chloroquine (ID50 with agent / ID50 alone)” value in data set [3] is reported as 1.8. In addition, the CC50 at 16 h is 0.00028 M in data set [5] (ID50 (concentration of drug required to kill 50% of the cells), drug alone) and 0.00038 M in data set [5] (ID50 (concentration of drug required to kill 50% of the cells), drug with monensin).
Regarding `CO[C@@H]1C[C@@H](C[C@H]2CC[C@H](C)[C@H]([C@@H](C)C(=O)O)O2)O[C@]2(O[C@](C)([C@H]3CC[C@@](C)([C@@H]4O[C@@H]([C@H]5O[C@@](O)(CO)[C@H](C)C[C@@H]5C)C[C@@H]4C)O3)C[C@H]2C)[C@@H]1C` [Nigericin], the “Factor of Protection, Chloroquine (ID50 with agent / ID50 alone)” value in data set [3] (against chloroquine cytotoxicity, agent 1.5 × 10^-7 M) was determined as 11.
Regarding `C[C@@H]1C[C@H]2CC[C@H](O2)[C@H](C)C(=O)O[C@@H](C)C[C@@H]2CC[C@@H](O2)[C@@H](C)C(=O)O[C@H](C)C[C@H]2CC[C@H](O2)[C@H](C)C(=O)O[C@@H](C)C[C@@H]2CC[C@@H](O2)[C@@H](C)C(=O)O1` [Nonactin], the “Factor of Protection, Chloroquine (ID50 with agent / ID50 alone)” value in data set [3] (against chloroquine cytotoxicity, agent 5 × 10^-6 M) stood at 26. The “Factor of Protection, Propranolol (ID50 with agent / ID50 alone)” value in data set [3] (against propranolol cytotoxicity, agent 5 × 10^-6 M) came to 1.
For the compound `CCN(CC)CCCC(C)Nc1c2ccc(Cl)cc2nc2ccc(OC)cc12` (stereo not shown) [Quinacrine], the “Factor of Protection (ID50 with monensin / ID50 alone)” value in data set [3] is on record as 3.2. For the same compound, the CC50 at 16 h is 4.2e-05 M in data set [5] (ID50 (M), Drug + Monensin) and 1.3e-05 M in data set [5] (ID50 (M), Drug Alone).
Consider `Oc1ccc2ccccc2c1-c1c(O)ccc2ccccc12` [(R)(+)-1,1'-bi-2-Naphthol, (R)(+)-1,1'-bi-2-naphthol], for which the “Factor of Protection, Chloroquine (ID50 with agent / ID50 alone)” value in data set [3] (against chloroquine cytotoxicity, agent 3.5 × 10^-5 M) was determined as 2.9.
As to `CN1CCC[C@@H]1CCO[C@](C)(c1ccccc1)c1ccc(Cl)cc1` [Clemastine], the “Factor of Protection (ID50 with monensin / ID50 alone)” value in data set [3] stood at 1.2.
As for `CN(C)CCCN1c2ccccc2CCc2ccccc21` [Imipramine], in data set [3], the “Factor of Protection (ID50 with monensin / ID50 alone)” value was 1.4. Besides, the CC50 at 16 h in data set [5] (ID50 (M), Drug + Monensin) turned out to be 0.00027 M; in data set [5] (ID50 (M), Drug Alone), 0.00019 M.
On to Ammonium chloride, for which the “Factor of Protection, Chloroquine (ID50 with agent / ID50 alone)” value in data set [3] (against chloroquine cytotoxicity, agent 4 × 10^-2 M) is given as 26. Further, in data set [3] (against propranolol cytotoxicity, agent 4 × 10^-2 M, pre-treatment of 2 hours with agent), the “Factor of Protection, Propranolol (ID50 with agent / ID50 alone)” value is recorded as 1.3.
Consider Gramicidin D, for which the “Factor of Protection, Chloroquine (ID50 with agent / ID50 alone)” value in data set [3] (setting [7]) is reported as 31. Moreover, in data set [3] (setting [8]), the “Factor of Protection, Propranolol (ID50 with agent / ID50 alone)” value worked out at 1.
As for `CC(C)N` [Isopropylamine], the “Factor of Protection, Chloroquine (ID50 with agent / ID50 alone)” value in data set [3] (setting [9]) turned out to be 6.2.
Take `C1COCCOCCOCCOCCO1` [15-Crown-5]: in data set [3], the “Factor of Protection, Chloroquine (ID50 with agent / ID50 alone)” value is 1 and the “Factor of Protection, Propranolol (ID50 with agent / ID50 alone)” value is recorded as 1.
Regarding `CCN(CC)CCCC(C)Nc1ccnc2cc(Cl)ccc12` (stereo not shown) [Chloroquine, chloroquine], in data set [6], the “Permeation through human epidermis with versus without ammonium chloride” value was “the same”. Further, the Accumulation in lysosomes entry in data set [4] was “have been shown to accumulate in lysosomes”. Besides, in data set [3], the “Factor of Protection (ID50 with monensin / ID50 alone)” value is recorded as 10.0 and the “Factor of Protection, Propranolol (ID50 with agent / ID50 alone)” value was found to be 1. In data set [5] (ID50 (M), Drug + Monensin), the CC50 at 16 h was 0.0007 M. Moreover, in data set [5] (ID50 (M), Drug Alone), the CC50 at 16 h is 7e-05 M.
Turning to `CCNCC` [Diethylamine], in data set [3] (setting [9]), the “Factor of Protection, Chloroquine (ID50 with agent / ID50 alone)” value came out at 3.3.
`OCCNCCO` [Diethanolamine]: the “Factor of Protection, Chloroquine (ID50 with agent / ID50 alone)” value in data set [3] was 1.5.
On the same count and under the same terms, the figure for `NC(CO)(CO)CO` [Tromethamine] is 1.2.
As to `CN(C)CCCN1c2ccccc2Sc2ccc(Cl)cc21` [Chlorpromazine], in data set [3], the “Factor of Protection (ID50 with monensin / ID50 alone)” value is reported as 1.6. The CC50 at 16 h turned out to be 1.6e-05 M in data set [5] (ID50 (M), Drug + Monensin, Table A, with 10^-6 M monensin, 16 h) and 1e-05 M in data set [5] (ID50 (M), Drug Alone, Table A, 16 h).
As to `N#CC(C#N)=NNc1cccc(Cl)c1` [Carbonyl cyanide m-chlorophenylhydrazone, carbonyl cyanide m-chlorophenylhydrazone], the “Factor of Protection, Chloroquine (ID50 with agent / ID50 alone)” value in data set [3] (setting [7]) was found to be 13. Further, the “Factor of Protection, Propranolol (ID50 with agent / ID50 alone)” value in data set [3] (setting [8]) was found to be 1.
